Target: Neuronal acetylcholine receptor alpha9/alpha10 (Homo sapiens)
Test: Partial agonist activity at human alpha9alpha10 nAChR expressed as xenopus laevis oocytes assessed as increase in receptor desensitization measured after 120 secs by two-electrode voltage-clamp electrophysiology method

**Q.** `CC[N+]1(C)CCN(c2ccc(NC(C)=O)cc2)CC1` was tested. Which EC50 did it give?
**A.** The EC50 was 640 nM.

From BindingDB's records for PubMed 38748608 (University of Florida)
